The assay concerns Platynereis FLamide receptor. The assay is described as follows: Positive control of deorphanization assay, luminescence. Format: cell-based. As to conditions: 1 μM AKYFL-NH2. From the text: Fig 1 Identification of the Clytia MIHR. (A) Diagram of a Clytia gonad showing the different tissues used for RNA-seq and GPCR expression comparisons. A total of 536 putative GPCRs identified in Clytia mixed-stages transcriptome were assigned to the three main GPCR classes (A, B, C) or “other” based on Pfam signatures. The 16 top candidate MIH GPCRs were selected based on oocyte enrichment, relatedness to known bilaterian class-A neuropeptide GPCRs, and Pfam information. (B) Luminescence response of CHO-K1 cells expressing the putative Clytia MIH GPCR treated with neuropeptide mixes lacking MIH activity (purple bars), MIH tetrapeptides identified from C. hemisphaerica (blue bars) or Cladonema radiatum (green bars), or related penta- and tripeptides previously shown to be ineffective in triggering oocyte maturation in vivo (red bars). Empty pcDNA3.1 vector was used as negative control and Platynereis FLamide and its receptor as a positive control (gray bars). Peptide concentrations all 1 μM. Absolute units of luminescence were normalized using the positive control; data are shown as mean ± standard error of the mean (n = 3). […] Luminescence values were normalized relative to the maximum of fitted dose–response curves and are shown as mean ± standard error of the mean (n = 3). Half maximal effective concentration (EC50) values were calculated as means of 3 independent experiments. […]

“AKYFL-NH2 [(+) Ctrl, ligand for Platynereis FLamide receptor]”: the “Normalised response (to positive control), mean” value was 1.

Source of the values: paper PMC7053711, “A G protein–coupled receptor mediates neuropeptide-induced oocyte maturation in the jellyfish Clytia” (PLoS Biology, 2020).
